Assay results from ChEMBL document CHEMBL3576765, “Rubrumazines A-C, Indolediketopiperazines of the Isoechinulin Class from Eurotium rubrum MA-150, a Fungus Obtained from Marine Mangrove-Derived Rhizospheric Soil” (J Nat Prod, 2015).
Converted amounts (≈) assume the structure as drawn.

Tested on: not listed separately
Assay: (§1) Toxicity in brine shrimp assessed as mortality
Assay type: organism-based
Conditions: artemia salina, in vivo; read-out: LD50 (the source's name); call rule not given here

Compound	LC50
C[C@@H]1NC(=O)[C@H](Cc2c[nH]c3ccccc23)NC1=O	25.5 µM
C=CC(C)(C)c1[nH]c2c(C[C@H](O)C(C)(C)O)cccc2c1/C=C1\NC(=O)[C@H](C)NC1=O	2.4 µM
C=CC(C)(C)c1[nH]c2c(C[C@H](O)C(C)(C)OC)cccc2c1/C=C1\NC(=O)[C@H](C)NC1=O	29.8 µM
C=CC(C)(C)c1[nH]c2ccccc2c1/C=C1\NC(=O)C(=O)NC1=O	3.9 µM
C=CC(C)(C)c1[nH]c2c(C[C@H](O)C(C)(C)O)cccc2c1C[C@@H]1NC(=O)[C@H](C)NC1=O	16.5 µM
C=CC(C)(C)c1[nH]c2c(CC=C(C)C)cc(CC=C(C)C)c(CC=C(C)C)c2c1/C=C1\NC(=O)[C@H](C)NC1=O	3.5 µM
C=CC(C)(C)c1[nH]c2ccccc2c1/C=C1\NC(=O)C2(C=C3c4cc(O)cc(O)c4C(=O)c4c(O)cc(C)c(c43)O2)NC1=O (stereo unspecified)	16.7 µM
C=CC(C)(C)c1[nH]c2ccccc2c1/C=C1\NC(=O)C2(C=C3c4cc(O)cc(OC)c4C(=O)c4c(O)cc(C)c(c43)O2)NC1=O (stereo unspecified)	9.8 µM
COc1cc2c(c(OC)c1OC)-c1ccc(OC)c(=O)cc1[C@@H](NC(C)=O)CC2 [COLCHICINE]	19.4 µM
C=CC(C)(C)c1[nH]c2ccc(CC=C(C)C)cc2c1/C=C1\NC(=O)[C@H](C)NC1=O [ISOECHINULIN A]	11.7 µM
C=CC(C)(C)c1[nH]c2ccc(CC(=O)C(C)C)cc2c1/C=C1\NC(=O)[C@H](C)NC1=O [VARIECOLORIN E]	24 µM
C=CC(C)(C)c1[nH]c2c(CC=C(C)C)cccc2c1/C=C1\NC(=O)[C@H](C)NC1=O [VARIECOLORIN G]	22 µM

Tested on: Artemia salina
Assay: as §1
Assay type: organism-based
Conditions: in vivo

Compound	LD50
C=CC(C)(C)c1[nH]c2c(CC=C(C)C)cc(CC=C(C)C)cc2c1C[C@@H]1NC(=O)[C@H](C)NC1=O [ECHINULIN]	Not Active
C=CC(C)(C)c1[nH]c2ccc(CC=C(C)C)cc2c1C[C@@H]1NC(=O)[C@H](C)NC1=O [TARDIOXOPIPERAZINE A]	Not Active
C=CC(C)(C)c1[nH]c2ccc(CC=C(C)C)c(CC=C(C)C)c2c1C[C@@H]1NC(=O)[C@H](C)NC1=O [VARIECOLORIN L]	Not Active

Tested on: Vibrio alginolyticus
Assay: Antibacterial activity against Vibrio alginolyticus by well diffusion method
Assay type: functional
Conditions: not given

Compound	MIC
O=C(N[C@H](CO)[C@H](O)c1ccc([N+](=O)[O-])cc1)C(Cl)Cl [CHLORAMPHENICOL]	4 µg/mL (≈ 12.4 µM)
